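Briefly, cells in 96-well plates were exposed to five compound concentrations for 48 h, and endpoints were estimated by linear interpolation. The concentration for 50% growth inhibition is given as GI50. TGI: concentration producing complete growth inhibition.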
Key:
Experiment in all cases: NCI-60 cell line screen, 48 h
DMS 114 small cell lung = test system: DMS 114 small cell lung
XF 498 CNS = test system: XF 498 CNS
RXF-631 renal = test system: RXF-631 renal
DMS 273 small cell lung = test system: DMS 273 small cell lung
MDA-MB-231 breast = test system: MDA-MB-231 breast
MDA-N = test system: MDA-N

For CCOc1cc[n+](C(=C=[N-])C#N)cc1, the TGI (DMS 114 small cell lung) was > 100 µM, the TGI (XF 498 CNS) was > 100 µM and the TGI (RXF-631 renal) was > 100 µM. For the same compound, the TGI (DMS 273 small cell lung) was > 100 µM.
In the case of Nc1cc(N)c2nc(-c3ccccc3)c(Oc3ccc(Cl)c(Cl)c3)nc2c1, the GI50 (MDA-MB-231 breast) is reported as 10.3 µM and the TGI (MDA-MB-231 breast) is reported as 26.2 µM.
With CCN(CC)c1ccc(N=C2C=CC(=C(C#N)C#N)c3ccccc32)c(C)c1 the TGI (XF 498 CNS) was 2.89 µM and the TGI (DMS 273 small cell lung) was 6.51 µM.
For C[C@H](c1ccc(Cl)cc1[N+](=O)[O-])N1C(=O)c2cc(I)ccc2NC(=O)[C@H]1c1ccc(Cl)cc1, the GI50 (MDA-MB-231 breast) was 3.46 µM and the TGI (MDA-MB-231 breast) was > 100 µM.
CC(=O)N1c2ccc(-c3ccc(C(=O)O)cc3)cc2[C@H](Nc2ccc(Cl)cc2)C[C@@H]1C was tested, and the GI50 (MDA-MB-231 breast) was 1.19 µM and the TGI (MDA-MB-231 breast) was > 100 µM.
With COc1cc[nH]c1/C=C1\C(=O)Nc2ccc([N+](=O)[O-])c(N3CC[C@@H](O)C3)c21 the GI50 (MDA-MB-231 breast) was 0.479 µM and the TGI (MDA-MB-231 breast) was 2.31 µM.
NC(C(=O)O)c1ccc(C(=O)O)cc1 (stereo not drawn) was tested, and the TGI (DMS 114 small cell lung) was > 100 µM, the TGI (XF 498 CNS) was > 100 µM and the TGI (RXF-631 renal) was > 100 µM.
O=C1OC(=O)C2C1C1C(c3ccccc3)=C(c3ccccc3)C2(O)C2C(=O)OC(=O)C12 (stereo not drawn) was tested, and the TGI (DMS 114 small cell lung) was > 100 µM.
In the case of COC(=O)C(C(=O)C(=O)Nc1ccc(N)cc1[N+](=O)[O-])c1nc2ccc(Cl)cc2[nH]c1=O (stereo not drawn), the TGI (DMS 114 small cell lung) is reported as > 100 µM, the TGI (XF 498 CNS) is reported as > 100 µM and the TGI (DMS 273 small cell lung) is reported as > 100 µM.
In the case of CCC(=O)Oc1ccc(/C=N/NC(N)=S)nc1, the GI50 (MDA-MB-231 breast) is reported as 6.79 µM and the TGI (MDA-MB-231 breast) is reported as > 100 µM.
For O=[N+]([O-])c1ccc2nc(=S)[nH]n2c1, the TGI (MDA-MB-231 breast) was > 100 µM.
N#CC1([N+](=O)[O-])C=C1c1ccccc1 (stereo not drawn) was tested, and the TGI (DMS 114 small cell lung) was > 100 µM, the TGI (RXF-631 renal) was > 100 µM and the TGI (DMS 273 small cell lung) was > 100 µM.
With CN/N=C(/CC(=O)c1sc(NNC(C)=O)nc1C)C(=O)Nc1ccc(OC)cc1OC the TGI (DMS 114 small cell lung) was > 100 µM, the TGI (XF 498 CNS) was > 100 µM and the TGI (DMS 273 small cell lung) was > 100 µM.
In the case of O=S1(=O)C=C(c2ccccc2)C(c2ccccc2)=C1, the GI50 (MDA-MB-231 breast) is reported as 1.62 µM and the TGI (MDA-MB-231 breast) is reported as 3.09 µM.
In the case of CC(C)CC1NC(=O)C(C(C)C)NC(=O)CC(C)COC(=O)C(CC(C)C)N(C)C(=O)C(C(C)C)NC(=O)C(C(C)C)OC1=O (stereo not drawn), the TGI (MDA-MB-231 breast) is reported as > 50 µM and the TGI (MDA-N) is reported as > 50 µM.
In the case of Cc1c(C(=O)Nc2ccc(Cl)cc2)nc(N)nc1-c1cccc(Cl)c1, the TGI (DMS 114 small cell lung) is reported as > 100 µM, the TGI (RXF-631 renal) is reported as > 100 µM and the TGI (DMS 273 small cell lung) is reported as > 100 µM.
COc1ccc(-c2cc(=O)c3cccnc3[nH]2)cc1 was tested, and the TGI (MDA-MB-231 breast) was > 100 µM, the GI50 (MDA-N) was 20.8 µM and the TGI (MDA-N) was 78.3 µM.
For O=C1C=C(OCC=C(Cl)Cl)C(=O)c2ccccc21, the GI50 (MDA-MB-231 breast) was 3.11 µM and the TGI (MDA-MB-231 breast) was 17.7 µM.
For CCC12C=CCN3CCC4(C(=C(C(=O)OC)C1)Nc1ccccc14)[C@H]32 (stereo partly drawn), the TGI (DMS 114 small cell lung) was 49.5 µM and the TGI (DMS 273 small cell lung) was 42.8 µM.
For CC(=O)Nc1ccccc1S(=O)c1ccccc1 (stereo not drawn), the TGI (DMS 114 small cell lung) was > 100 µM, the TGI (XF 498 CNS) was > 100 µM and the TGI (RXF-631 renal) was > 100 µM. For the same compound, the TGI (DMS 273 small cell lung) was > 100 µM.

Source: PubChem BioAssay (NCI)
